# Assay results reported in US7442547B2, “Dendritic cells and the uses thereof in screening cellular targets and potential drugs” (Sekmed, S.R.L., priority 2001, dated 2008).
# Experiments:
# Type in all cases: cell-based, mouse
# [1] = system: DC (D1, D8, BMDC/RAG2−/−); test: IL-2 production by DC after stimulation in vitro (IL-2 ELISA of supernatant); settings: splenic (D1) and bone marrow-derived DC (D8, BMDC/RAG2−/−), long- and short-term lines
# Method: Antibodies and Reagents. LPS (E. Coli 026:B6, used at 10 μg/ml) and zymosan (used at 10 μg/ml) were obtained from Sigma Chem. (St. Louis, Mo.). rTNF, (San Francisco) and rIL-1. (Genzyme, Cambridge Mass.) were used at 100 U/ml and 10 μg/ml respectively. IFN was kindly provided by Schering-Plough (Dardilli, Fr.) and used at 1000 U/ml. CpG ([…])(SEQ ID NO. 5) and CpG control ([…]) (SEQ ID NO. 6) oligos were purchased from Life Technologies and used at a concentration of 1 µM. PE-conjugated anti-IL-2, PE-conjugated rat Isotype control, biotinilated anti-CD8α and FITC-conjugated anti-CD11c monoclonal antibodies were purchased from Pharmingen. Quantum-red-conjugated streptavidin was obtained from Sigma. Anti-I-A^d/I-E^d mAb (clone M5 /114, rat IgG2b) was kindly provided by Dr. A. Ager (NIMR, London, UK). FITC-conjugated anti-rat was from Jackson ImmunoResearch (West Grove, Pa.). Anti-CD40 antibody [clone FGK45 (10)] was used at a concentration of 20 μg/ml and crosslinked with a monoclonal anti-rat antibody (10 μg/ml, PharMingen).
# DC and culture medium. D1 and D8.1 long term DC were cultured in IMDM (Sigma, St. Louis, Mo.) containing 10% heat-inactivated fetal bovine serum (GIBCO), 100 IU penicillin, 100 μg/ml streptomycin, 2 mM L-glutamine (all from Sigma), and 50 μM 2-mercaptoethanol (complete IMDM) with 30% supernatant from R1 medium [supernatant from NIH3T3 fibroblasts transfected with GM-CSF].
# Fresh BMDCRAG2−/− were derived from RAG2−/− BALB/c or C57BL/6 bone marrow cells. Usually bone marrow cells cultured for two days and frozen. BMDCRAG2−/− were obtained from defrost cells after 7 days of culture in medium containing 10% of supernatant of GM-CSF transduced B16 tumor cells. BMDCRAG2−/− were used for activation only if they were immature, as judged by low B7.2 and CD40 expression.
# IL-2 ELISA. IL-2 ELISA was performed using the DuoSet kit (R and D, Minneapolis, Minn.) and following the manufacturer recommendations. […]
# D1 cells [2] = test: Differential gene expression analysis (Mu6500 GeneChip) in LPS- and TNF-α-stimulated versus unstimulated D1 cells; set-up: key: NC: No change in the level of expression; I: induced (detected only in stimulated cells); U: up-regulated; D: down-regulated; S: suppressed (detected only in unstimulated cells); settings: no asterisk=fold change, *=AvgDiff after stimulation, **=AvgDiff in baseline
# Method: (§1) Cells and reagents. The D1 cells were derived from murine splenic DC and maintained in vitro in IMDM supplemented with 30% R1 conditional medium as previously described. LPS (Escherichia coli sero- type 026:B6) was purchased from Sigma Chemical Co. and used at 10 μg/ml. Muriner TNF-α (Genetech Inc., San Francisco. Calif.) was used at 100 U/ml. Cells were grown and harvested at the same time.
# RNA extraction, amplification and labeling for hybridization. Antisense cRNA was prepared following Affymetrix (Santa Clara, Calif.) recommendations. Briefly, mRNA was directly extracted from frozen pellets using the DIRECT OLIGOTEX KIT (i.e., column chromatography kit for mRNA purification) from Qiagen (Chatsworth, Calif.) and converted to double-stranded cDNA using a modified oligo dT primer with a 5′T7 RNA polymerase promoter sequence and the SUPER-SCRIPT CHOICE SYSTEM (i.e., reverse transcriptase system) for cDNA synthesis (Life Technologies, Gaithesbourg, Md.). Double-stranded cDNA (0.5 μg) was transcribed to cRNA with the T7 RNA polymerase (T7 MEGASCRIPT KIT (i.e., phage specific in vitro transcription kit); Ambion, Austin, Tex.) in the presence of a mixture of unlabeled ATP, CTP, GTP, UTP and biotin-labeled CTP and UTP (ENZO Diagnostics, Farmingdale, N.Y.). cRNA was purified on an affinity column (RNEASY (i.e., a RNA purification column); Qiagen).
# Probe array hybridization and scanning. The Mu6500 GENECHIP (i.e., DNA microarray) array consists of a set of four individual chips, A-D, collectively representing 6,500 murine genes and ESTs. Analysis of the D1 samples was performed by hybridizing the cRNA to the GENECHIP (i.e., DNA microarray) arrays A-D. Probe array hybridizations were carried out as described. cRNA was fragmented to an average size of 50-200 bases, by incubation for 30 min at 94° C. in 40 mM Tris-acetate pH 8.1, 100 mM potassium acetate and 30 mM magnesium acetate.
# Samples were then diluted in the hybridization solution (1 M NaCI, 10 mM Tris pH7.6, 0.005% Triton X-100, 0.1 mg/ml herring sperm DNA, BioB-, BioC-, BioD-, cre- control cRNA at a concentration of 1.5, 5, 25, 100 pM, respectively) at a final concentration of 0.05 μg/ml heated at 94° C. for 5 min and placed in the hybridization cartridge (200 μl/chip). Hybridizations were performed at 40° C. for 16 h. Following hybridization the chips were rinsed with 6× SSPE-T (0.9 M NaCI, 60 mM NaH2PO4, 6 mM EDTA, 0.005% Triton X-100 adjusted to pH 7.6) and 0.5× SSPE-T and stained by incubating with 2 μg/ml streptavidin-phycoerythrin (Molecular Probes, Eugene, Oreg.) and 1 mg/ml acetylated BSA (Sigma, St. Louis, Mo.).
# The arrays were read at a resolution of 7.5 μm. using a confocal scanner (Affymetrix) and analyzed with the GENECHIP 3.3 GENE EXPRESSION ANALYSIS PROGRAM (i.e., gene expression analysis software) (Affymetrix).
# Gene expression analysis was performed on immature, transitional (6 h LPS and TNF-α-activated) and mature (18 h LPS- and TNF-α-activated) D1 cells using GENECHIP (i.e., DNA microarray) oligonucleotide probe arrays representing approximately 6,500 distinct mouse genes and ESTs. The 6,500 probe sets are subdivided in four individual chips, A-D, each containing oligonucleotide probes for about 1,600 genes and ESTs. The hybridized arrays were analyzed using the GENECHIP 3.3 GENE EXPRESSION ANALYSIS PROGRAM (i.e., gene expression analysis software). Data analysis protocols, sensitivity and quantitative aspects of the method have been previously precisely described. In brief, gene probes are represented by 20 perfectly matched 20-mer oligonucleotides (PM) and 20 control oligonucleotides with a single mismatch (MM). Gene expression levels are defined averaging the differences (AvgDiff) between the PM and MM of every probe pair over the entire probe set:
# An AvgDiff of 20 approximates the lower value of fluorescence intensity for detected genes. […]
# D1 cells [3] = test: Growth of D1 cells after stimulation (number of viable cells)
# From the text: D1 cells were stimulated either with LPS or TNF-α for the indicated time. The number of viable cells at the indicated time points is expressed as percentage of seeded cells. LPS, LPS-stimulated cells; TNF-α, TNF-α-stimulated cells; NS, non-stimulated cells. Standard deviations of five independent experiments are reported.
# as §1
substance,measurement,setting,value
"CpG: oligo DNA containing the unmethylated CpG motif, TCCATGACGTTCCTGATGCT (SEQ ID NO. 5), recognized by TLR9 (listed as DNA, further chemistry not given here)",induction of IL-2 production/secretion by DC,[1],efficient in stimulating DC to secrete IL-2
IL-1 β: inflammatory cytokine (Genzyme),induction of IL-2 production/secretion by DC,[1],"none of the inflammatory cytokines, used individually or added simultaneously to DC cultures, were able to promote IL-2 secretion"
tumor necrosis factor [TNFα],"1AP3 (Y08026) gene expression, stimulated versus unstimulated D1 cells",D1 cells [2]; 6 h,NC
same,"BTG1 (L16846) gene expression, stimulated versus unstimulated D1 cells",D1 cells [2]; 6 h,NC
same,"BTG3 (Z72000) gene expression, stimulated versus unstimulated D1 cells",D1 cells [2]; 6 h,NC
same,"CD14 (M34510) gene expression, stimulated versus unstimulated D1 cells",D1 cells [2]; 6 h,NC
same,"CD37 (U18372) gene expression, stimulated versus unstimulated D1 cells",D1 cells [2]; 6 h,NC
same,"CD40 (M833312) gene expression, stimulated versus unstimulated D1 cells",D1 cells [2]; 6 h,NC
same,"CYL-1 (M64403) gene expression, stimulated versus unstimulated D1 cells",D1 cells [2]; 6 h,NC
same,"Clqα (X58861) gene expression, stimulated versus unstimulated D1 cells",D1 cells [2]; 6 h,NC
same,"EtAI (X16151) gene expression, stimulated versus unstimulated D1 cells",D1 cells [2]; 6 h,NC
same,"F4-80 (X93328) gene expression, stimulated versus unstimulated D1 cells",D1 cells [2]; 6 h,NC
same,"GAS (U19860) gene expression, stimulated versus unstimulated D1 cells",D1 cells [2]; 6 h,NC
same,"H-2Mα (U35323) gene expression, stimulated versus unstimulated D1 cells",D1 cells [2]; 6 h,NC
same,"H-2Mβ1 (U35323) gene expression, stimulated versus unstimulated D1 cells",D1 cells [2]; 6 h,NC
same,"I-Aα (K01923) gene expression, stimulated versus unstimulated D1 cells",D1 cells [2]; 6 h,NC
same,"I-Aβ (V01527) gene expression, stimulated versus unstimulated D1 cells",D1 cells [2]; 6 h,NC
same,"IL-6 (J03783) gene expression, stimulated versus unstimulated D1 cells",D1 cells [2]; 6 h,NC
same,"IL-12p40 (M86671) gene expression, stimulated versus unstimulated D1 cells",D1 cells [2]; 6 h,NC
same,"IL-IRA (M64404) gene expression, stimulated versus unstimulated D1 cells",D1 cells [2]; 6 h,NC
same,"Jaw1 (U10484) gene expression, stimulated versus unstimulated D1 cells",D1 cells [2]; 6 h,NC
same,"Ki-67 (X82786) gene expression, stimulated versus unstimulated D1 cells",D1 cells [2]; 6 h,NC
same,"MIP-1α (M73061) gene expression, stimulated versus unstimulated D1 cells",D1 cells [2]; 6 h,NC
same,"MIP-2 (X53798) gene expression, stimulated versus unstimulated D1 cells",D1 cells [2]; 6 h,NC
same,"Macrostatin (X68273) gene expression, stimulated versus unstimulated D1 cells",D1 cells [2]; 6 h,NC
same,"OX40L (U12763) gene expression, stimulated versus unstimulated D1 cells",D1 cells [2]; 6 h,NC
same,"PA28 (U60329) gene expression, stimulated versus unstimulated D1 cells",D1 cells [2]; 6 h,NC
same,"RCK (D50494) gene expression, stimulated versus unstimulated D1 cells",D1 cells [2]; 6 h,NC
same,"TAP-1cas (M55637) gene expression, stimulated versus unstimulated D1 cells",D1 cells [2]; 6 h,NC
same,"TIS (D86344) gene expression, stimulated versus unstimulated D1 cells",D1 cells [2]; 6 h,NC
same,"TMP (U25633) gene expression, stimulated versus unstimulated D1 cells",D1 cells [2]; 6 h,NC
same,"TSA1 (U47737) gene expression, stimulated versus unstimulated D1 cells",D1 cells [2]; 6 h,NC
same,"c-1AP-I (L49433) gene expression, stimulated versus unstimulated D1 cells",D1 cells [2]; 6 h,NC
same,"cyclin A (Z26580) gene expression, stimulated versus unstimulated D1 cells",D1 cells [2]; 6 h,NC
same,"cyclin B1 (X64713) gene expression, stimulated versus unstimulated D1 cells",D1 cells [2]; 6 h,NC
same,"cyclin B2 (X66032) gene expression, stimulated versus unstimulated D1 cells",D1 cells [2]; 6 h,NC
same,"cyclin D2 (M83749) gene expression, stimulated versus unstimulated D1 cells",D1 cells [2]; 6 h,NC
same,"serum amyloid (X03505) gene expression, stimulated versus unstimulated D1 cells",D1 cells [2]; 6 h,NC
same,"βig-h3 (L19932) gene expression, stimulated versus unstimulated D1 cells",D1 cells [2]; 6 h,NC
same,"BTG1 (L16846) gene expression, stimulated versus unstimulated D1 cells",D1 cells [2]; 18 h,NC
same,"CD14 (M34510) gene expression, stimulated versus unstimulated D1 cells",D1 cells [2]; 18 h,NC
same,"CD37 (U18372) gene expression, stimulated versus unstimulated D1 cells",D1 cells [2]; 18 h,NC
same,"CYL-1 (M64403) gene expression, stimulated versus unstimulated D1 cells",D1 cells [2]; 18 h,NC
same,"Clqα (X58861) gene expression, stimulated versus unstimulated D1 cells",D1 cells [2]; 18 h,NC
same,"F4-80 (X93328) gene expression, stimulated versus unstimulated D1 cells",D1 cells [2]; 18 h,NC
same,"GAS (U19860) gene expression, stimulated versus unstimulated D1 cells",D1 cells [2]; 18 h,NC
same,"H-2Mα (U35323) gene expression, stimulated versus unstimulated D1 cells",D1 cells [2]; 18 h,NC
same,"H-2Mβ1 (U35323) gene expression, stimulated versus unstimulated D1 cells",D1 cells [2]; 18 h,NC
same,"I-Aα (K01923) gene expression, stimulated versus unstimulated D1 cells",D1 cells [2]; 18 h,NC
same,"I-Aβ (V01527) gene expression, stimulated versus unstimulated D1 cells",D1 cells [2]; 18 h,NC
same,"IL-6 (J03783) gene expression, stimulated versus unstimulated D1 cells",D1 cells [2]; 18 h,NC
same,"IL-12p40 (M86671) gene expression, stimulated versus unstimulated D1 cells",D1 cells [2]; 18 h,NC
same,"IL-IRA (M64404) gene expression, stimulated versus unstimulated D1 cells",D1 cells [2]; 18 h,NC
same,"MIP-1α (M73061) gene expression, stimulated versus unstimulated D1 cells",D1 cells [2]; 18 h,NC
same,"MIP-2 (X53798) gene expression, stimulated versus unstimulated D1 cells",D1 cells [2]; 18 h,NC
same,"Macrostatin (X68273) gene expression, stimulated versus unstimulated D1 cells",D1 cells [2]; 18 h,NC
same,"OX40L (U12763) gene expression, stimulated versus unstimulated D1 cells",D1 cells [2]; 18 h,NC
same,"PA28 (U60329) gene expression, stimulated versus unstimulated D1 cells",D1 cells [2]; 18 h,NC
same,"RCK (D50494) gene expression, stimulated versus unstimulated D1 cells",D1 cells [2]; 18 h,NC
same,"TAP-1cas (M55637) gene expression, stimulated versus unstimulated D1 cells",D1 cells [2]; 18 h,NC
same,"TIS (D86344) gene expression, stimulated versus unstimulated D1 cells",D1 cells [2]; 18 h,NC
same,"TSA1 (U47737) gene expression, stimulated versus unstimulated D1 cells",D1 cells [2]; 18 h,NC
same,"cyclin A (Z26580) gene expression, stimulated versus unstimulated D1 cells",D1 cells [2]; 18 h,NC
same,"cyclin D2 (M83749) gene expression, stimulated versus unstimulated D1 cells",D1 cells [2]; 18 h,NC
same,"mMCM2 (D86725) gene expression, stimulated versus unstimulated D1 cells",D1 cells [2]; 18 h,NC
same,"properdin (X12905) gene expression, stimulated versus unstimulated D1 cells",D1 cells [2]; 18 h,NC
same,"βig-h3 (L19932) gene expression, stimulated versus unstimulated D1 cells",D1 cells [2]; 18 h,NC
same,doubling time of activated D1 cells,D1 cells [3],130 h
same,growth arrest of D1 cells,D1 cells [3]; after stimulation,only a strong proliferation slow down but not a definitive growth arrest
same,induction of IL-2 production/secretion by DC,[1],"none of the inflammatory cytokines, used individually or added simultaneously to DC cultures, were able to promote IL-2 secretion"
